The source of these data is patent US20090326003A1, “PYRAZOLO (3, 4-B) PYRIDINE DERIVATIVES AS PDE4 INHIBITORS” (priority 2006, published 2009).

For this assay, the system named is LPS-induced pulmonary neutrophilia. The assay can be described thus: LPS induced pulmonary neutrophilia in rats, intratracheally administered PDE4 inhibitors. In kind it is in vivo. The settings on record: rat, intratracheal (i.t.) 2 hours prior to LPS challenge, wet suspension in saline/tween; for inhibition of the neutrophilia: dose not stated. The text has this: This assay is an animal model of inflammation in the lung—specifically neutrophilia induced by lipopolysaccharide (LPS)— and allows the study of putative inhibition of such neutrophilia (anti-inflammatory effect) by intratracheally (i.t.) administered PDE4 inhibitors. The PDE4 inhibitors are preferably in dry powder or wet suspension form. I.t. administration is one model of inhaled administration, allowing topical delivery to the lung.
Animals: Male CD (Sprague Dawley Derived) rats supplied by Charles River, Raleigh, N.C., USA or Charles River, United Kingdom are housed in groups of 5 rats per cage, acclimatized after delivery for at least 5 days with bedding/nesting material regularly changed, fed on SDS diet R1 pelleted food given ad lib, and supplied with daily-changed pasteurized animal grade drinking water.
Device for wet suspension administration: This is similar to the above but a blunt dosing needle, whose forward end is slightly angled to the needle axis, is used, with a flexible plastic portex canula inserted into the needle.
Wet suspensions of the drug (aqueous) can be prepared by adding the required volume of vehicle to the drug; the vehicle used can for example be saline alone or a mixture of saline/tween (e.g. 0.2% tween 80). The wet suspension is usually sonicated for ca. 10 minutes prior to use.
Preparation, and dosing with PDE 4 inhibitor: Rats are anaesthetized by placing the animals in a sealed Perspex chamber and exposing them to a gaseous mixture of isoflurane (4.5%), nitrous oxide (3 litres.minute^−1) and oxygen (1 litre.minute^−1). Once anaesthetized, the animals are placed onto a stainless steel i.t. dosing support table. They are positioned on their back at approximately a 35° angle. A light is angled against the outside of the throat to highlight the trachea. […]
Neutrophil cell counts: The Bronchoalveolar lavage (BAL) samples are centrifuged at ca. 1300 rpm for ca. 7 minutes. […] The total cells are also counted from the resuspension. From these two counts, the total numbers of neutrophils in the BAL are determined. […]

Regarding `CCc1nc2c(cnn2CC)c(NC2CCOCC2)c1CNC(=O)c1ccc(-c2ccc(C(=O)NCc3c(CC)nc4c(cnn4CC)c3NC3CCOCC3)cc2)cc1` [Example 23, N,N′-bis{[1,6-diethyl-4-(tetrahydro-2H-pyran-4-ylamino)-1H-pyrazolo[3,4-b]pyridin-5-yl]methyl}-4,4′-biphenyldicarboxamide], the “ED50 for inhibition of neutrophilia” value is listed as “about 50 micrograms/kg body weight”.
On to `CCn1ncc2c(NC3CCOCC3)c(CNC(=O)c3cccc(-c4cccc(C(=O)NCc5c(C)nc6c(cnn6CC)c5NC5CCOCC5)c4)c3)c(C)nc21` [Example 29, N,N′-bis{[1-ethyl-6-methyl-4-(tetrahydro-2H-pyran-4-ylamino)-1H-pyrazolo[3,4-b]pyridin-5-yl]methyl}-3,3′-biphenyldicarboxamide], for which the “inhibition of the neutrophilia” value is given as “about 40%”.
Still for that read-out and setting: the result for `CCc1nc2c(cnn2CC)c(NC2CCOCC2)c1CNC(=O)c1ccc(C(=O)NCc2c(CC)nc3c(cnn3CC)c2NC2CCOCC2)o1` [Example 35, N,N′-bis{[1,6-diethyl-4-(tetrahydro-2H-pyran-4-ylamino)-1H-pyrazolo[3,4-b]pyridin-5-yl]methyl}-2,5furandicarboxamide] reads “about 43%”.
